The text below walks through data of ChEMBL document CHEMBL5126584, “Synthesis of AC1903 analogs as potent transient receptor potential canonical channel 4/5 inhibitors and biological evaluation” (Bioorg Med Chem, 2022).

The term IC50 denotes the concentration needed to halve the response being measured.

Assay [1] deals with T1, Short transient receptor potential channel 5 (Homo sapiens, UniProt Q9UL62).
T1 sequence (Q9UL62 whole entry): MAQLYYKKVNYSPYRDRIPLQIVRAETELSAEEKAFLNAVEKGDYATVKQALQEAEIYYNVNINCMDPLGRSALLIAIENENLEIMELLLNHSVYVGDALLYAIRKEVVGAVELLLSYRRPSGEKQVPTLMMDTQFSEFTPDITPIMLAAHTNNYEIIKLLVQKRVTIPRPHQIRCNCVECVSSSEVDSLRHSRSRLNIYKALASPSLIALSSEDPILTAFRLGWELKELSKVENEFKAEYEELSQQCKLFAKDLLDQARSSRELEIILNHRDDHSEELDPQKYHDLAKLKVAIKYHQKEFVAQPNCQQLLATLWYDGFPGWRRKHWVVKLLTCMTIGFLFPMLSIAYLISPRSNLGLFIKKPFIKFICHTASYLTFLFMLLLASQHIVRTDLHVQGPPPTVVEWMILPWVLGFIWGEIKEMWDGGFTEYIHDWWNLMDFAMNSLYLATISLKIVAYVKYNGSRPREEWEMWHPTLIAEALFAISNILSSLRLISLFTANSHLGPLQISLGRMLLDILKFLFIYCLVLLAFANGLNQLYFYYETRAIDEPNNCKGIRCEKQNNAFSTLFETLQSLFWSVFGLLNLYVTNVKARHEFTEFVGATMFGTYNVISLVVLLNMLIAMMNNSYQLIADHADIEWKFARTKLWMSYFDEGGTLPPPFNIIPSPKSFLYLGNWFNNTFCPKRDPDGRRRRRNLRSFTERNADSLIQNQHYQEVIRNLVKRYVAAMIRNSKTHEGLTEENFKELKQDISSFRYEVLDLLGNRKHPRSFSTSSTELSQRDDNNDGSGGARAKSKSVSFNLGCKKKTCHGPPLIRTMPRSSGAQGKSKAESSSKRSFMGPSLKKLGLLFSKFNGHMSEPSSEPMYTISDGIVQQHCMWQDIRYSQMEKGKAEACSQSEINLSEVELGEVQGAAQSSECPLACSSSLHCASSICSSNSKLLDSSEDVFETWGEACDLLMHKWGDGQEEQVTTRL
Kind of assay: Inhibition of human TRPC5 channel expressed in HEK293 cells assessed as inhibition of EA-evoked Calcium influx by measuring reduction in intracellular Ca2+ level and measured upto 360 sec by Fluo-4/AM dye based FLIPR assay. The class given is cell-based.

Assay [2] relates to MPC-5. Put plainly: Protective effect against protamine sulfate induced cytoskeleton rearrangement in mouse MPC-5 cell assessed as reduction in aggregated stress fibers at 10 uM pretreatment followed by PS stimulation and measured after 2 hrs by phalloidin and Hoechst 33342 staining based fluorescence analysis. The class given is functional.
Assay [3] concerns the target T2, Short transient receptor potential channel 4 (Homo sapiens, UniProt Q9UBN4).
T2 sequence (Q9UBN4 whole entry): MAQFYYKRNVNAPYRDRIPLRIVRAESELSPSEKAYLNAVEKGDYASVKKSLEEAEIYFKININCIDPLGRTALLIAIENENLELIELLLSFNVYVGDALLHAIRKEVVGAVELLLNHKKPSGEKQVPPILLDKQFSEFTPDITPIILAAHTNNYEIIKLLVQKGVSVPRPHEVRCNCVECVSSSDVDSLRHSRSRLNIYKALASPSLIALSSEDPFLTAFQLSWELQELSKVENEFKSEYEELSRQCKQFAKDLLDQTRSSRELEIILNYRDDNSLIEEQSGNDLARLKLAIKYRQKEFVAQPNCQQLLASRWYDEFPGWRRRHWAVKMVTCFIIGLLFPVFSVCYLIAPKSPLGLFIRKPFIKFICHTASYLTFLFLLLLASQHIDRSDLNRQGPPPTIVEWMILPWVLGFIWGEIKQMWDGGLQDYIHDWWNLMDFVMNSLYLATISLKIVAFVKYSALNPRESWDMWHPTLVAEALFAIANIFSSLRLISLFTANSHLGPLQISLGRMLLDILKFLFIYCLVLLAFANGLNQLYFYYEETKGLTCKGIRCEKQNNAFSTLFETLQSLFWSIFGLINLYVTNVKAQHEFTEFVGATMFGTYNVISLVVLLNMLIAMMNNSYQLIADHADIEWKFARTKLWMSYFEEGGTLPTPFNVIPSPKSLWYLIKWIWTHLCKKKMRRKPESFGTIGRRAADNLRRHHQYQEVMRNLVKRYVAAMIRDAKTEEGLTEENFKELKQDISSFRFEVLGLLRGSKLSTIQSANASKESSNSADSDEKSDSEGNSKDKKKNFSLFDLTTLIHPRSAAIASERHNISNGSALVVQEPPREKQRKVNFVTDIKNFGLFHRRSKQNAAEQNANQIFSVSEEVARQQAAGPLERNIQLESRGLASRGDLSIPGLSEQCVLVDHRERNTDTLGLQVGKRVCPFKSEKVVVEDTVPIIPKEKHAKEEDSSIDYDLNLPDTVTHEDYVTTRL
Put plainly: Inhibition of human TRPC4 channel expressed in HEK293 cells assessed as inhibition of EA-evoked Calcium influx by measuring reduction in intracellular Ca2+ level and measured upto 360 sec by Fluo-4/AM dye based FLIPR assay. It counts as cell-based.

Assay [4] has as its system HaCaT. Put plainly: Inhibition of IL-17 induced cell proliferation in human HaCaT cells assessed as decrease in BrdU positive (BrdU+) cells at 10 uM and measured after 24 hrs by BrdU incorporation assay. It counts as functional, cell-based. (Uptake of a labelled nucleoside into DNA is a usual measure of proliferation.)
Assay [5] concerns HaCaT. Put plainly: Inhibition of IL-17 induced cell proliferation in human HaCaT cells assessed as decrease in BrdU positive (BrdU+) cells at 0.3 to 3 uM and measured after 24 hrs by BrdU incorporation assay. It counts as functional, cell-based. The following applies: dose 0.3-3 µM.
Assay [6] deals with HaCaT. Kind of assay: Inhibition of IL-17 induced inflammation in human HaCaT cells assessed as reduction in IL-8 mRNA level at 0.3 to 3 uM by qRT-PCR analysis. It counts as functional, cell-based. The following applies: dose 0.3-3 µM. For orientation: In qPCR the cycle at which signal appears reflects the starting amount.
The test system of assay [7] is HaCaT. Kind of assay: Inhibition of IL-17 induced inflammation in human HaCaT cells assessed as reduction in IL-6 mRNA level at 0.3 to 3 uM by qRT-PCR analysis. It counts as functional, cell-based. The following applies: dose 0.3-3 µM.
For assay [8], the system named is MPC-5. Kind of assay: Protective effect against protamine sulfate induced cytoskeleton rearrangement in mouse MPC-5 cell assessed as reduction in aggregated stress fibers at 1 to 3 uM pretreatment followed by PS stimulation and measured after 2 hrs by phalloidin and Hoechst 33342 staining based fluorescence analysis. It counts as functional. The following applies: dose 1-3 µM.

In assay [9] the test system is HaCaT. Put plainly: Inhibition of IL-17 induced inflammation in human HaCaT cells assessed as reduction in CCL-20 mRNA level at 0.3 to 3 uM by qRT-PCR analysis. It counts as functional, cell-based. The following applies: dose 0.3-3 µM.

The structures appear in SMILES notation. Activity calls are given as the source filed them. No cut-off for these calls is given here.

Turning to `CCc1ccc2c(c1)nc(NCc1ccco1)n2Cc1ccc(F)cc1`, in [1], the IC50 came to 960 nM.
With `C=Cc1ccc2c(c1)nc(NCc1ccco1)n2Cc1ccccc1`, the concentration for half-maximal inhibition (IC50) in [1] was greater than 10000 nM.
The same measure, in the same setting: the value for `CCc1ccc2c(c1)nc(NCc1ccc(C)o1)n2Cc1ccccc1` was 2930 nM.
On to `CCc1ccc2c(c1)nc(NCC1CCOC1)n2Cc1ccccc1` (stereo not given), for which, in assay [1], the IC50 was found to be 2270 nM.
As to `CCc1ccc2c(c1)nc(NCc1cccs1)n2Cc1ccccc1`, the IC50 in assay [1] came out at 2410 nM.
With `CCc1ccc2c(c1)nc(N1CCC(C)CC1)n2Cc1ccccc1`, the IC50 in [1] is greater than 10000 nM.
Consider `CCc1ccc2c(c1)nc(NCCN1CCCCC1)n2Cc1ccccc1`, for which the IC50 in [1] is 3350 nM.
Same read-out and setting: in the case of `CCc1ccc2c(c1)nc(NCc1ccccn1)n2Cc1ccccc1` it was 3130 nM; in that of `CCc1ccc2c(c1)nc(NCc1ccc(C#N)o1)n2Cc1ccccc1`, greater than 10000 nM.
Regarding `C#Cc1ccc2c(c1)nc(NCc1ccco1)n2Cc1ccccc1`, the IC50 in assay [1] was greater than 10000 nM.
Take `CCc1ccc2c(c1)nc(NCc1ccco1)n2Cc1ccccc1C(F)(F)F`: in [1], the IC50 was greater than 10000 nM.
Still for that read-out and setting: in the case of `Cc1ccc2nc(NCc3ccco3)n(Cc3ccccc3)c2c1` it was greater than 10000 nM; in that of `CCc1ccc2c(c1)nc(N1CCC3(CCCO3)CC1)n2Cc1ccccc1`, greater than 10000 nM.
On the same count and under the same terms, in the case of `CCc1ccc2c(c1)nc(NCc1ccco1)n2Cc1ccc(C(F)(F)F)cc1` it was 1350 nM; in that of `CCc1ccc2c(c1)nc(N1CC3CCC(C1)O3)n2Cc1ccccc1`, greater than 10000 nM.
Turning to `c1ccc(Cn2c(NCc3ccco3)nc3ccccc32)cc1`, the outcome with MPC-5 [2] was Active. For the same compound, the results for the half-maximal inhibitory concentration (IC50) in assay [3] and in assay [1] were 77200 nM and 65000 nM, respectively. Besides, the inhibition entry in the assay with HaCaT [4] is “Active”.
On to `CCc1ccc2c(c1)nc(NCc1ccco1)n2Cc1ccc(OC(F)(F)F)cc1`, for which, in assay [1], the IC50 is 920 nM.
Regarding `CCc1ccc2c(c1)nc(NCCc1ccncc1)n2Cc1ccccc1`, the IC50 in [1] worked out at 2950 nM.
Regarding `CCc1ccc2c(c1)nc(N1CCN(C)CC1)n2Cc1ccccc1`, the IC50 in assay [1] is greater than 10000 nM.
Consider `CCc1ccc(Cn2c(NCc3ccco3)nc3cc(CC)ccc32)cc1`, for which the IC50 in assay [1] was found to be 2300 nM.
Take `CCc1ccc2c(c1)nc(NCc1ccco1)n2Cc1ccccc1`: the inhibition entry in the assay with HaCaT [5], in the assay with HaCaT [6], in the assay with HaCaT [7] and in the assay with HaCaT [9] was “Active” throughout. For the same compound, the IC50 is 2060 nM in assay [3] and 540 nM in [1]. Moreover, the result with MPC-5 [8] was Active.
For `CCc1ccc2c(c1)nc(NCc1ccco1)n2Cc1ccc(OC)cc1`, the IC50 in assay [1] is 2210 nM.
Same read-out and setting: the value for `CC(C)c1ccc2c(c1)nc(NCc1ccco1)n2Cc1ccccc1` was 570 nM; that for `CCc1ccc2nc(NCc3ccco3)n(Cc3ccccc3)c2c1` was greater than 10000 nM; that for `CCc1ccc2c(c1)nc(NCc1ccc(Cl)o1)n2Cc1ccccc1` was 2210 nM.
On the same count and under the same terms, the value for `CCc1ccc2c(c1)nc(N1CC3(COC3)C1)n2Cc1ccccc1` was greater than 10000 nM.
The same measure, in the same setting: the value for `Cc1ccc2c(c1)nc(NCc1ccco1)n2Cc1ccccc1` was 670 nM; that for `CCc1ccc2c(c1)nc(NCCc1ccco1)n2Cc1ccccc1` was 1020 nM.
In the case of `CCc1ccc2c(c1)nc(NCc1ccco1)n2Cc1ccc(C)cc1`, in assay [1], the 50% inhibitory concentration (IC50) turned out to be 4630 nM.
For the compound `c1ccc(Cn2c(NCc3ccco3)nc3cc(C4CC4)ccc32)cc1`, the IC50 in assay [1] worked out at 820 nM.
On to `CCc1ccc2c(c1)nc(NCc1ccco1)n2Cc1cccc(C(F)(F)F)c1`, for which the IC50 in assay [1] came to 2240 nM.
Consider `Oc1ccc2c(c1)nc(NCc1ccco1)n2Cc1ccccc1`, for which the IC50 in [1] is greater than 10000 nM.
Take `CCc1ccc2c(c1)nc(NCCN1CCOCC1)n2Cc1ccccc1`: the IC50 in assay [1] was 2640 nM.
The same measure, in the same setting: the value for `CCc1ccc2c(c1)nc(N1CCOCC1)n2Cc1ccccc1` was greater than 10000 nM; that for `CCCc1ccc2c(c1)nc(NCc1ccco1)n2Cc1ccccc1` was 1340 nM; that for `CCc1ccc2c(c1)nc(NCC1CCCO1)n2Cc1ccccc1` (stereo not given) was 1820 nM.
